In patent publication US11535593B2, “3-phosphoglycerate dehydrogenase inhibitors and uses thereof” (Raze Therapeutics, Inc., priority 2016, dated 2022):
pIC50: −log10 of the molar value.

Each molecule was assayed against T1, Full length (FL) 3-Phosphoglycerate Dehydrogenase (PHGDH) (Homo sapiens, UniProt O43175) (assay: Full length (FL) PHGDH Diaphorase coupled assay (500 uM NAD)). Conditions: 5 nM PHGDH, 30° C., 60 minutes.
T1 construct: Full length (FL) 3-Phosphoglycerate Dehydrogenase (PHGDH) Diaphorase coupled assay (500 uM NAD)
T1 sequence (O43175 1-533): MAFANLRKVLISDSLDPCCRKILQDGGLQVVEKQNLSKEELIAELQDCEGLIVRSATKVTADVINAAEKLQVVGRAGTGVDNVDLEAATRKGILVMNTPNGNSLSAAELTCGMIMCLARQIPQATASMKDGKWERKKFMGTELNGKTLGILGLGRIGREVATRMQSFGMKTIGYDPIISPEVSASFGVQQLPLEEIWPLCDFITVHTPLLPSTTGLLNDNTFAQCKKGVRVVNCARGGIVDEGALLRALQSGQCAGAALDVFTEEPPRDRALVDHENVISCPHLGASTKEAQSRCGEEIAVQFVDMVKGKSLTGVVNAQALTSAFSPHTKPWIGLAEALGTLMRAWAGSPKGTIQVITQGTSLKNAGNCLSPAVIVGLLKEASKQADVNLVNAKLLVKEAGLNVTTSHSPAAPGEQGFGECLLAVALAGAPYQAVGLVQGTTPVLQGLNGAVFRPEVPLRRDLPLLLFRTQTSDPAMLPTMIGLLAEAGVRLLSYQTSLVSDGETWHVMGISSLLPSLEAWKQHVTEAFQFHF
Type: biochemical
Procedure: Full length (FL) 3-Phosphoglycerate Dehydrogenase (PHGDH) Diaphorase coupled assay (500 uM NAD)
PHGDH activity was determined by detecting the NADH produced during the reaction. Diaphorase was used to catalyze the oxidation of NADH with the concomitant reduction of resazurin to the fluorescent product resorufin. Resorufin fluorescence quantitatively reflected the production of NADH by the PHGDH reaction. To drive the forward reaction, two enzymes in the serine synthesis pathway subsequent to PHGDH, Phosphoserine aminotransferase (PSAT1) and phosphoserine phosphatase (PSPH) were also added to the reaction.

| pIC50 | SMILES |
| --- | --- |
| 6.00 to 8.00 | Cn1c(C(=O)N[C@H](CO)c2ccc(C(=O)O)cc2)cc2c(Cl)c(Cl)ccc21 [Compound I-43, 4-[(1S)-1-[(4,5-dichloro-1-methyl-1H-indol-2-yl)formamido]-2-hydroxyethyl]benzoic acid] |
| 6.00 to 8.00 | CC(NC(=O)c1cc2c(Cl)c(Cl)ccc2n1C)c1ccc(C(=O)O)cc1 (centres unmarked) [Compound I-44] |

The molecules below were run against T1, Full length (FL) 3-Phosphoglycerate Dehydrogenase (PHGDH) (assay: Full length (FL) PHGDH Diaphorase coupled assay (20 uM NAD)). Conditions: 10 nM PHGDH, 30° C., 60 minutes, read-out: FL Diaphorase 20 μM NAD (PHGDH activity inhibition, IC50).
Type: biochemical
Procedure: Example 57: Full Length (FL) 3-Phosphoglycerate Dehydrogenase (PHGDH) Diaphorase Coupled Assay (20 uM NAD)
Serial dilution of compounds were incubated in a volume of 20 μl in 384 well plates with the assay mixture containing 10 nM PHGDH, 500 nM PSAT1, 500 nM PSPH, 20 μM NAD^+, 80 uM 3-phosphoglycerate, 1 mM glutamate, 57 uM Resazurin and 0.2 mg/ml Diaphorase in assay buffer containing 50 mM Trisethanoloamine (TEA) pH8.0, 10 mM MgCl2, 0.01% Tween-20 and 0.05% Bovine Serum Albumin (BSA). The plate was then incubated at 30° C. for 60 minutes and resorufin fluorescence was measured at emission wavelength 598 nm following excitation at 525 nm. The positive control consisted of the complete reaction mixture with 4% DMSO and was set to 0% inhibition. […] Percent inhibition with the compounds was then calculated by normalizing the fluorescence observed at a given compound concentration to the positive and negative controls.

| pIC50 | SMILES |
| --- | --- |
| 6.00 to 8.00 | CC(=O)NS(=O)(=O)N(C)CCC(NC(=O)c1cc2c(Cl)c(Cl)ccc2n1C)c1ccc(C(=O)O)cc1 (racemic) [Compound I-45, (±)-4-[3-[Acetylsulfamoyl(methyl)amino]-1-[(4,5-dichloro-1-methyl-indole-2-carbonyl)-amino]propyl]benzoic Acid] |
| 6.00 to 8.00 | Cn1c(C(=O)NC(CN)c2ccc(C(=O)O)cc2)cc2c(Cl)c(Cl)ccc21 (racemic) [Compound I-46, (±)-4-(2-Amino-1-(4,5-dichloro-1-methyl-1H-indole-2-carboxamido)ethyl) benzoic Acid] |
| 5.30 to 6.00 | CC(=O)NS(=O)(=O)NCCC(NC(=O)c1cc2c(Cl)c(Cl)ccc2n1C)c1cccc(CO)c1 (racemic) [Compound I-48, (±)-N-[3-(acetylsulfamoylamino)-1-[3-(hydroxymethyl)phenyl]propyl]-4,5-dichloro-1-methyl-indole-2-carboxamide] |
| 6.00 to 8.00 | CC(=O)NS(=O)(=O)NCCC(NC(=O)c1cc2c(Cl)c(Cl)ccc2n1C)c1cccc(C(=O)O)c1 (racemic) [Compound I-49, (±)-3-[3-(Acetylsulfamoylamino)-1-[(4,5-dichloro-1-methyl-indole-2-carbonyl)amino]propyl]benzoic Acid] |
| 5.30 to 6.00 | CC(=O)NS(=O)(=O)NCCC(NC(=O)c1cc2c(Cl)c(Cl)ccc2n1C)c1ccccc1 (racemic) [Compound I-50, (±)-N-[3-(acetylsulfamoylamino)-1-phenyl-propyl]-4,5-dichloro-1-methyl-indole-2-carboxamide] |
| 6.00 to 8.00 | CC(=O)NS(=O)(=O)NCCC(NC(=O)c1cc2c(Cl)c(Cl)ccc2n1C)c1ccc(C(=O)O)cc1 (centres unmarked) [Compound I-47, 4-[3-(Acetylsulfamoylamino)-1-[(4,5-dichloro-1-methyl-indole-2-carbonyl)amino]propyl]benzoic Acid] |
| 5.00 to 5.30 | CC(=O)NS(=O)(=O)N(C)CCCNC(=O)c1cc2c(Cl)c(Cl)ccc2n1C [Compound I-51, N-[3-[acetylsulfamoyl(methyl)amino]propyl]-4,5-dichloro-1-methyl-indole-2-carboxamide] |
| 5.30 to 6.00 | CC(=O)NS(=O)(=O)NCCCNC(=O)c1cc2c(Cl)c(Cl)ccc2n1C [Compound I-52, N-[3-(acetylsulfamoylamino)propyl]-4,5-dichloro-1-methyl-indole-2-carboxamide] |
| < 5.00 | Cn1c(C(=O)NC(C)(C)CC(N)=O)cc2c(Cl)c(Cl)ccc21 [Compound I-53, N-(3-amino-1,1-dimethyl-3-oxo-propyl)-4,5-dichloro-1-methyl-indole-2-carboxamide] |
